Results taken from PMC10709440, “High-throughput ligand profile characterization in novel cell lines expressing seven heterologous insect olfactory receptors for the detection of volatile plant biomarkers” (Scientific Reports, 2023).
Read-outs that look alike come from different tables or passages of the source.

Tests used:
Drosophila OR71a = target: T1, Drosophila OR71a (Drosophila melanogaster, UniProt Q9VUK5); assay: Calcium ion fluorescence (GCaMP6) assay, OR71a stable HEK293 cell line; format: cell-based; parameters: key to DF norm AVERAGE OR71a: VOC ∆F divided by the plate's mean ∆F response to 50 µM VUAA1; details: for activation at 1 µM / activation at 10 µM / activation at 100 µM: HEK293, read-out: OR71a response (VUAA1-normalized response); for Average response / OR71a response (VUAA1-normalized) at 1 μM / OR71a response (VUAA1-normalized) at 10 μM / OR71a response (VUAA1-normalized) at 100 μM: OR71a cell line; for Average response: VUAA1-normalized response, mean of biological replicates
T1 construct: expressed in transfected cells
T1 sequence (Q9VUK5 1-378): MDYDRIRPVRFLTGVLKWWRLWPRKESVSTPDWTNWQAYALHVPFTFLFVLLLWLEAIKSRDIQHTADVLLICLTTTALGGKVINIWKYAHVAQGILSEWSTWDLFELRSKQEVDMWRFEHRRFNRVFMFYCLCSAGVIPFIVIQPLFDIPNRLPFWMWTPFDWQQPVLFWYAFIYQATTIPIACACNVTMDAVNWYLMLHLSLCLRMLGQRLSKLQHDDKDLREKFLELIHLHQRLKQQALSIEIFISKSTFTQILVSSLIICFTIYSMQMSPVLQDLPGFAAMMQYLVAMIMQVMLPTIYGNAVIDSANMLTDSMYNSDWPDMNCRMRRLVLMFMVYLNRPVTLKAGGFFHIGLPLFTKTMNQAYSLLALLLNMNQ
T1 sequence (Q9VNB5 1-486 partner): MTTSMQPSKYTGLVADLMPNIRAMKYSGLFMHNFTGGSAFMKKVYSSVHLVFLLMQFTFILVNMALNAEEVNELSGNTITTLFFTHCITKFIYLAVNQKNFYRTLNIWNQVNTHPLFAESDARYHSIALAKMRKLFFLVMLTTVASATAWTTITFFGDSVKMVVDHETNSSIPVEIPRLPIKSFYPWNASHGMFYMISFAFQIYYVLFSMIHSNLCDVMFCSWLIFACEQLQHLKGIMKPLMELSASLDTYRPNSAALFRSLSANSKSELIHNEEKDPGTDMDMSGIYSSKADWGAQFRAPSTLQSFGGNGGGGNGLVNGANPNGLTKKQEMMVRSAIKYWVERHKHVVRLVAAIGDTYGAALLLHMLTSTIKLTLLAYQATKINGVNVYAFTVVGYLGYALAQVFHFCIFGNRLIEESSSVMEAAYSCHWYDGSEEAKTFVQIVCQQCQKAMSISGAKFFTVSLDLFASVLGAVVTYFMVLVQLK
In short: (§1)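 HEK293 lines stably expressing each Drosophila OR with GCaMP6, doxycycline-induced (1 μg/mL) 48 or 72 h. Fluorescence recorded 5 s baseline then 30 s after VOC injection at pH 7.3; ΔF=(FMAX−F0)/F0, normalized to 50 µM VUAA1 response per line, triplicate wells averaged; concentration series 0.01–100 μM.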

Drosophila OR49b = target: T2, Drosophila OR49b (Drosophila melanogaster, UniProt Q9V6H2); assay: cell-based; details: for OR49b response (VUAA1-normalized) at 1 μM / OR49b response (VUAA1-normalized) at 10 μM / OR49b response (VUAA1-normalized) at 100 μM / Average response: OR49b cell line; for Average response: mean of biological replicates
T2 construct: expressed in transfected cells
T2 sequence (Q9V6H2 1-375): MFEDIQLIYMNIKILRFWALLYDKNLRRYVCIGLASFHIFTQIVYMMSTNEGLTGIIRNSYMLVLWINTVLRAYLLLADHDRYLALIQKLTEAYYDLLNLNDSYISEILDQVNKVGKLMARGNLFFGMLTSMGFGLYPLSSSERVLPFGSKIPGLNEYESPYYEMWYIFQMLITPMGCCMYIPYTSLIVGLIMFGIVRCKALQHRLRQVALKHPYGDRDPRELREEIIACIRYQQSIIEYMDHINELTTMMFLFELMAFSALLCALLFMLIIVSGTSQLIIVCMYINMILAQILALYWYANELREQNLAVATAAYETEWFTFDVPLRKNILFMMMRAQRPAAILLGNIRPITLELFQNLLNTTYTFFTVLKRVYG
T2 sequence (Q9VNB5 1-486 partner): T1 sequence (Q9VNB5 1-486 partner)
In short: as §1

[1] = ligand concentration 1 (unit not given), threshold 0.05, below shown as 0
[2] = ligand concentration 10 (unit not given), threshold 0.05, below shown as 0
[3] = ligand concentration 100 (unit not given), threshold 0.05, below shown as 0
[4] = HEK293, read-out: OR49b Average response (VUAA1-normalized)
[5] = HEK293, read-out: OR49b response (VUAA1-normalized response)
[6] = HEK293, VOC concentration 1 μM, read-out: OR49b response (VUAA1-normalized response)
[7] = HEK293, VOC concentration 10 μM, read-out: OR49b response (VUAA1-normalized response)
[8] = HEK293, VOC concentration 100 μM, read-out: OR49b response (VUAA1-normalized response)
[9] = concentration 1, normalized fluorescence change, values below 0.05 threshold given as 0
[10] = concentration 10, normalized fluorescence change, values below 0.05 threshold given as 0
[11] = concentration 100, normalized fluorescence change, values below 0.05 threshold given as 0

SMILES | activation at 1 µM (Drosophila OR71a) | activation at 10 µM (Drosophila OR71a) | activation at 100 µM (Drosophila OR71a) | Average response (Drosophila OR71a; cc. 1 µM) | Average response (Drosophila OR71a; cc. 10 µM) | Average response (Drosophila OR71a; cc. 100 µM) | DF norm AVERAGE OR71a (Drosophila OR71a; [1]) | DF norm AVERAGE OR71a (Drosophila OR71a; [2]) | DF norm AVERAGE OR71a (Drosophila OR71a; [3]) | OR71a response (VUAA1-normalized) at 1 μM (Drosophila OR71a; VOC concentration 1 μM) | OR71a response (VUAA1-normalized) at 10 μM (Drosophila OR71a; VOC concentration 10 μM) | Average response (Drosophila OR49b; odorant cc. 1 µM) | Average response (Drosophila OR49b; odorant cc. 10 µM) | Average response (Drosophila OR49b; odorant cc. 100 µM) | DF norm AVERAGE OR49b (Drosophila OR49b; [1]) | DF norm AVERAGE OR49b (Drosophila OR49b; [2]) | DF norm AVERAGE OR49b (Drosophila OR49b; [3]) | activation at 1 µM (Drosophila OR49b; [6]) | activation at 10 µM (Drosophila OR49b; [7]) | activation at 100 µM (Drosophila OR49b; [8]) | other results
CCCCOC(C)=O [butyl acetate] | 0% | 0% | 0% | 0.00 | 0.00 | 0.0132 | 0 | 0 | 0 |  |  |  |  |  |  |  |  |  |  |  | activation at 1 µM (Drosophila OR49b; [4]): 0%; activation at 10 µM (Drosophila OR49b; [4]): 0%; activation at 1 µM (Drosophila OR49b; [5]): 0%; activation at 10 µM (Drosophila OR49b; [5]): 0%; activation at 100 µM (Drosophila OR49b; [5]): 20%
CCCCCCCCC=O [nonanal] |  |  |  | 0.00 | 0.00 | 0.00 | 0 | 0 | 0 | 0.00 | 0.00 | 0.00 | 0.00 | 0.00 | 0 | 0 | 0 |  |  |  | OR71a response (VUAA1-normalized) at 100 μM (Drosophila OR71a; VOC concentration 100 μM): 0.00; OR49b response (VUAA1-normalized) at 1 μM (Drosophila OR49b; VOC concentration 1 μM): 0.00; OR49b response (VUAA1-normalized) at 10 μM (Drosophila OR49b; VOC concentration 10 μM): 0.00; OR49b response (VUAA1-normalized) at 100 μM (Drosophila OR49b; VOC concentration 100 μM): 0.00
C=CCc1ccc(O)c(OC)c1 [eugenol] | 0% | 0% | 0% | 0.00 | 0.0465 | 0.0247 | 0 | 0 | 0 |  |  | 0.05 | 0.00 | 0.00 | 0 | 0 | 0 | 0% | 0% | 0% | 
C=CC(C)(O)CCC=C(C)C (stereo not shown) [linalool] |  |  |  | 0.00 | 0.0443 | 0.0124 | 0 | 0 | 0 | 0.00 | 0.00 | 0.00 | 0.00 | 0.0212 | 0 | 0 | 0 |  |  |  | OR71a response (VUAA1-normalized) at 100 μM (Drosophila OR71a; VOC concentration 100 μM): 0.00; OR49b response (VUAA1-normalized) at 1 μM (Drosophila OR49b; VOC concentration 1 μM): 0.00; OR49b response (VUAA1-normalized) at 10 μM (Drosophila OR49b; VOC concentration 10 μM): 0.00; OR49b response (VUAA1-normalized) at 100 μM (Drosophila OR49b; VOC concentration 100 μM): 0.00
CC1=CCC2C(C1)C2(C)C (stereo not shown) [3-carene] | 0% | 0% | 0% | 0.00 | 0.00 | 0.00 |  |  |  |  |  | 0.00 | 0.00 | 0.00 |  |  |  | 0% | 0% | 0% | DF norm AVERAGE OR71a (Drosophila OR71a; [9]): 0; DF norm AVERAGE OR71a (Drosophila OR71a; [10]): 0; DF norm AVERAGE OR71a (Drosophila OR71a; [11]): 0; DF norm AVERAGE OR49b (Drosophila OR49b): 0
CC(C)=CCC/C(C)=C/CC/C(C)=C/CO [e,e-farnesol] |  |  |  | 0.00 | 0.0452 | 0.00 | 0 | 0 | 0 |  |  | 0.00 | 0.06 | 0.00 | 0 | 0.06141 | 0 |  |  |  | OR71a response (VUAA1-normalized response) (Drosophila OR71a; VOC concentration 1 μM): 0.00; OR71a response (VUAA1-normalized response) (Drosophila OR71a; VOC concentration 10 μM): 0.00; OR71a response (VUAA1-normalized response) (Drosophila OR71a; VOC concentration 100 μM): 0.00; OR49b response (VUAA1-normalized response) (Drosophila OR49b; VOC concentration 1 μM): 0.00; OR49b response (VUAA1-normalized response) (Drosophila OR49b; VOC concentration 10 μM): 0.06; OR49b response (VUAA1-normalized response) (Drosophila OR49b; VOC concentration 100 μM): 0.00
Cc1ccc(C)cc1 [p-xylene] |  |  |  | 0.00 | 0.06 | 0.00 | 0 | 0.0615 | 0 | 0.00 | 0.06 | 0.00 | 0.033 | 0.38 | 0 | 0 | 0.379 |  |  |  | OR71a response (VUAA1-normalized) at 100 μM (Drosophila OR71a; VOC concentration 100 μM): 0.00; activation at 1 µM (Drosophila OR49b; HEK293, 1 μM VOC, 50 μM VUAA1 = 1, read-out: OR49b Average response (VUAA1-normalized)): 0%; activation at 10 µM (Drosophila OR49b; HEK293, 10 μM VOC, 50 μM VUAA1 = 1, read-out: OR49b Average response (VUAA1-normalized)): 3%; activation at 100 µM (Drosophila OR49b; HEK293, 100 μM VOC, 50 μM VUAA1 = 1, read-out: OR49b Average response (VUAA1-normalized)): 38%; OR49b response (VUAA1-normalized) at 1 μM (Drosophila OR49b; VOC concentration 1 μM): 0.00; OR49b response (VUAA1-normalized) at 10 μM (Drosophila OR49b; VOC concentration 10 μM): 0.00; OR49b response (VUAA1-normalized) at 100 μM (Drosophila OR49b; VOC concentration 100 μM): 0.38
C=CC(O)CCCCC (stereo not shown) [1-octen-3-ol] | 0% | 0% | 5.55% | 0.00 | 0.0223 | 0.0555 |  |  |  |  |  | 0.00 | 0.0174 | 0.0145 |  |  |  | 0% | 0% | 0% | DF norm AVERAGE OR71a (Drosophila OR71a; [9]): 0; DF norm AVERAGE OR71a (Drosophila OR71a; [10]): 0; DF norm AVERAGE OR71a (Drosophila OR71a; [11]): 0.05555; DF norm AVERAGE OR49b (Drosophila OR49b): 0
CCc1ccccc1 [ethylbenzene] | 0% | 0% | 0% | 0.023 | 0.0127 | 0.0277 | 0 | 0 | 0 |  |  | 0.05 | 0.09 | 0.33 | 0.05039 | 0.08967 | 0.3273 |  |  |  | activation at 1 µM (Drosophila OR49b; [4]): 5%; activation at 10 µM (Drosophila OR49b; [4]): 9%; activation at 100 µM (Drosophila OR49b; [4]): 33%; activation at 1 µM (Drosophila OR49b; [5]): 5%; activation at 10 µM (Drosophila OR49b; [5]): 9%; activation at 100 µM (Drosophila OR49b; [5]): 33%
CCCCCC(=O)CC [3-octanone] | 0% | 0% | 0% | 0.00 | 0.00 | 0.00 |  |  |  |  |  | 0.0421 | 0.17 | 0.0439 |  |  |  | 0% | 17% | 0% | DF norm AVERAGE OR71a (Drosophila OR71a; [9]): 0; DF norm AVERAGE OR71a (Drosophila OR71a; [10]): 0; DF norm AVERAGE OR71a (Drosophila OR71a; [11]): 0
